Publication PMC10901950, “Neuroprotective and Anti-inflammatory Effects of Rubiscolin-6 Analogs with Proline Surrogates in Position 2” (Neurochemical Research, 2023)
Numbered stars: 1 amine (or outer) side, 2 acyl side, 3 side chain; on linkers, the order of the positions; unused ones are H or OH. Square brackets hold non-standard residues; d marks the D form. Ends that are not written are not given here. Peptide text beside a SMILES is read from it. Nip(3R) = O=C([C@@H]1CCCN([*:1])C1)[*:2]; Dmt = Cc1cc(O)cc(C)c1C[C@H](N)C(=O)O; Inp = O=C(O)C1CCNCC1

Tests used:
[1] = target: δ-opioid receptor (Homo sapiens, UniProt P41143); experiment: Calcium mobilisation assay, CHO cells with GαqG66Di5; type: cell-based; parameters: expressed in transfected cells; host or cells: CHO cells; gift from Prof; Girolamo Calo, University of Padova; settings: for δ-opioid receptors pEC50 (CL95%): agonist potency, mean ± SEM of three experiments in triplicate; for δ-opioid receptors pEC50 (CL95%) / δ-opioid receptors α ± SEM: Inactive = inactive as an agonist up to 1 µM; for δ-opioid receptors α ± SEM: intrinsic activity, Emax ratio to DPDPE; for EC50: read-out: δ-opioid receptors pEC50 (CL95%) (converted)
Sequence of δ-opioid receptor (P41143 whole entry): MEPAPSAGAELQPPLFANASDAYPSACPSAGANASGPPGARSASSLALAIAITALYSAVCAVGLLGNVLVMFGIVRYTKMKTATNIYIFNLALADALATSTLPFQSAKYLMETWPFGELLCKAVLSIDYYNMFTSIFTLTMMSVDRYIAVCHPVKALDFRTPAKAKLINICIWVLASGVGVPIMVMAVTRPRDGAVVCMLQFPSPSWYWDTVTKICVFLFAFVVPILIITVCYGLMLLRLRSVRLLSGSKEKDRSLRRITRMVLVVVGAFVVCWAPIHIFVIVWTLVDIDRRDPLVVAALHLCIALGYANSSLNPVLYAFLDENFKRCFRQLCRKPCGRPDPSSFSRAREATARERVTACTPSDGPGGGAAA
Procedure: (§1) Chinese Hamster Ovary (CHO) cells stably co-expressing human recombinant µ- or κ-opioid receptors and the C-terminally modified Gαqi5, and CHO cells co-expressing the human recombinant δ-opioid receptors and the GαqG66Di5 chimeric protein (a generous gift from Prof. Girolamo Calo, University of Padova, Italy) were used in calcium mobilization assay, that was performed as reported in detail elsewhere. Cells were cultured in Dulbecco’s Modified Eagle’s Medium (DMEM)/Ham’s F12 (1:1) culture medium supplemented with 10% (v/v) Fetal Bovine Serum (FBS), penicillin (100 IU/mL), streptomycin (100 µg/mL), L-glutamine (2 mM), fungizone (1 µg/mL), geneticin (G418; 200 µg/mL) and hygromycin B (100 µg/mL). Cell cultures were kept at 37 °C in 5% CO2/humidified air. When confluence was reached (3–4 days), cells were seeded at a density of 50,000 cells/well into 96-well black, clear-bottom plates. After 24 h incubation, the cells were loaded with a medium supplemented with probenecid (2.5 mM), calcium-sensitive fluorescent dye Fluo-4 AM (3 µM), pluronic acid (0.01%), and HEPES (20 mM) and kept for 30 min at 37 °C. Then, the loading solution was aspirated, and 100 µL/well of assay buffer (HBSS supplemented with 20 mM HEPES, 2.5 mM probenecid, and 500 µM Brilliant Black) was added.
(§2) The tested peptides were diluted in the HBSS/HEPES (20 mM) buffer (containing 0.005% BSA) and placed into 96-well plates. The range of concentrations tested was 10 µM–1 × 10^–6 µM. After placing both plates (cell culture and compound plate) into the FlexStation II (Molecular Device, Union City, CA, USA), the online additions were carried out in a volume of 50 µL/well and the fluorescence changes were measured.
(§3) Concentration–response curves were fitted with the four-parameter logistic, nonlinear regression model: Effect=baseline+Emax- baseline/1+10^logEC50- Xn where X is the agonist concentration and n is the Hill coefficient. Ligand efficacies, expressed as the intrinsic activity (α), were calculated as the Emax ratio of the tested compound and the standard agonist.

[2] = Degradation by the brain homogenate; type: in vitro ADME; settings: rat brain homogenate 100 µL (10 mg protein/mL, 50 mM Tris-HCl pH 7.4) + 100 µL peptide 0.5 mM, final 200 µL, 37 °C, 0-60 min, HPLC read-out, ln 2/k; mean ± SEM of four independent experiments in duplicate; read-out: T0.5 (degradation half-life)
Procedure: The degradation studies were performed on the rat brain homogenate according to the modified method described elsewhere. Briefly, rat brains, after isolation and homogenization in 50 mM Tris–HCl (pH 7.4), were stored at − 80 °C until used. During the test, the aliquots (100 µL, 10 mg protein/mL) were incubated with 100 µL of a peptide (0.5 mM) over 0, 7.5, 15, 22.5, 30, and 60 min at 37 °C in a final volume of 200 µL. The reaction was stopped at the required time by placing the tube on ice and acidifying it with 20 µL of 1 M aqueous HCl solution. Then, the aliquots were centrifuged at 20,000×g for 10 min at 4 °C. The obtained supernatants were filtered and analyzed by HPLC on a Vydac C18 column (5 µm, […]) using the solvent system of 0.1% trifluoroacetic acid (TFA) in water (A) and 80% acetonitrile in water containing 0.1% TFA (B) and a linear gradient of 0–100% B over 25 min. The rate constants of degradation (k) were obtained as described earlier by a least square linear regression analysis of logarithmic peak areas [ln(A/AD)], where A—the amount of peptide remaining, AD—the initial amount of peptide, versus time. Degradation half-lives (t1/2) were calculated from the rate constants as ln 2/k.

[3] = test system: LPS-stimulated RAW 264.7 cells; experiment: Intracellular ROS formation in LPS-stimulated RAW 264.7 cells; type: cell-based, mouse; settings: LPS-stimulated, 24 h; for decrease of ROS levels: peptides 0.1-10 µM
Procedure: The cytotoxic and anti-inflammatory effects of peptides on RAW 264.7 cells were estimated using MTT assay. Cells were incubated with peptides (0.1–10 µM) for 24 h to assess their cytoprotective activity. In the anti-inflammatory model, RAW 264.7 cells were exposed to LPS (Millipore Sigma, Darmstadt, Germany) at 1 µg/mL in the absence/presence of peptide at non-toxic concentrations (0.1–10 µM). Then, the MTT reagent was added to wells, and cells were incubated for 1.5 h at 37 °C. After this time, MTT was removed, 100 µL DMSO was added, and the resulting absorbance was read in a microplate reader (Synergy 2 BioTek Microplate Reader, Winooski, VT, USA) at 570 nm.
The detection of ROS generated in injured cells was evaluated using the 5(6)-carboxy-2ʹ,7ʹ-dichlorofluorescein diacetate (carboxy-H2DCFDA) reagent (Invitrogen, Bleiswijk, Netherlands). After incubation, cells were washed with ice-cold Phosphate-Buffer Saline (PBS). Then, the carboxyl-H2DCFDA (100 µL, 20 µM) reagent was added and incubated for 1 h at 37 °C. Finally, the fluorescence intensity was measured at wavelengths of […], and ROS levels were presented in percentage of control (non-treated cells).

[4] = target: µ-opioid receptor (Homo sapiens, UniProt P35372); experiment: Calcium mobilisation assay, CHO cells with Gαqi5; type: cell-based; parameters: expressed in transfected cells; gift from Prof; Girolamo Calo, University of Padova; settings: for µ-opioid receptors α ± SEM: intrinsic activity, Emax ratio to Dermorphin; for µ-opioid receptors α ± SEM / µ-opioid receptors pEC50 (CL95%): Inactive = inactive as an agonist up to 1 µM; for EC50: read-out: µ-opioid receptors pEC50 (CL95%) (converted); for µ-opioid receptors pEC50 (CL95%): agonist potency, mean ± SEM of three experiments in triplicate
Sequence of µ-opioid receptor (P35372 whole entry): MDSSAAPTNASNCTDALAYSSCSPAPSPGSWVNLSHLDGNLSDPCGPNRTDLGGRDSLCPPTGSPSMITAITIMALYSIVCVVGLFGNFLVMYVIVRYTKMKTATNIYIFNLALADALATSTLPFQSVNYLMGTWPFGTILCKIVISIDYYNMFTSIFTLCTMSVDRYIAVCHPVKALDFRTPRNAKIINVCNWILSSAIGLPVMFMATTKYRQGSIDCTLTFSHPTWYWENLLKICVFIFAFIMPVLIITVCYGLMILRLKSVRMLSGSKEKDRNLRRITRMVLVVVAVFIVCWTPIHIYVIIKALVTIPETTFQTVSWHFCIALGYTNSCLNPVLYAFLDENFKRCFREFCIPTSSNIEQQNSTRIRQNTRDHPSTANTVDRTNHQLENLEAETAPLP
Procedure: as §1, §2, §3

Compound | δ-opioid receptors pEC50 (CL95%) [1] | δ-opioid receptors α ± SEM [1] | half-life at 0.25 mM [2] | decrease of ROS levels ([3]; DCFH-DA) | µ-opioid receptors α ± SEM [4] | EC50 [4] | µ-opioid receptors pEC50 (CL95%) [4] | effect on ROS levels ([3]; peptide 0.1 µM) | EC50 [1] | reduction of ROS levels ([3]; peptide 0.1 µM, DCFH-DA)
Cc1cc(O)cc(C)c1C[C@H](N)C(=O)N1CCC[C@H]1C(=O)N[C@@H](CC(C)C)C(=O)N[C@@H](CC(=O)O)C(=O)N[C@@H](CC(C)C)C(=O)N[C@@H](Cc1ccccc1)C(=O)O [analog 1, Dmt-Pro-Leu-Asp-Leu-Phe-OH] (H-[Dmt]PLDLF-OH) | Inactive | Inactive | 20.8 ± 0.85 min | ≤ 40% | 0.22 ± 0.05 | 2 µM |  |  |  | 
CC(C)C[C@H](NC(=O)[C@@H]1CCCN(C(=O)[C@@H](N)Cc2ccc(O)cc2)C1)C(=O)N[C@@H](CC(=O)O)C(=O)N[C@@H](CC(C)C)C(=O)N[C@@H](Cc1ccccc1)C(=O)O [analog 2, Tyr-(R)-Nip-Leu-Asp-Leu-Phe-OH] (H-Y[Nip(3R)]LDLF-OH) | Inactive | Inactive | 25.5 ± 0.4 min | ≤ 40% | Inactive |  | Inactive |  |  | 
CC(C)C[C@H](NC(=O)C1CCN(C(=O)[C@@H](N)Cc2ccc(O)cc2)CC1)C(=O)N[C@@H](CC(=O)O)C(=O)N[C@@H](CC(C)C)C(=O)N[C@@H](Cc1ccccc1)C(=O)O [analog 3, Tyr-Inp-Leu-Asp-Leu-Phe-OH] (H-Y[Inp]LDLF-OH) | Inactive | Inactive | 28.6 ± 0.95 min |  | Inactive |  | Inactive | protective effect |  | 
Cc1cc(O)cc(C)c1C[C@H](N)C(=O)N1CCC[C@@H](C(=O)N[C@@H](CC(C)C)C(=O)N[C@@H](CC(=O)O)C(=O)N[C@@H](CC(C)C)C(=O)N[C@@H](Cc2ccccc2)C(=O)O)C1 [analog 4, Dmt-(R)-Nip-Leu-Asp-Leu-Phe-OH] (H-[Dmt][Nip(3R)]LDLF-OH) | Inactive | Inactive | 30.4 ± 1.2 min | ≤ 40% | Inactive |  | Inactive |  |  | 
Cc1cc(O)cc(C)c1C[C@H](N)C(=O)N1CCC(C(=O)N[C@@H](CC(C)C)C(=O)N[C@@H](CC(=O)O)C(=O)N[C@@H](CC(C)C)C(=O)N[C@@H](Cc2ccccc2)C(=O)O)CC1 [analog 5, Dmt-Inp-Leu-Asp-Leu-Phe-OH] (H-[Dmt][Inp]LDLF-OH) |  | 0.39 ± 0.02 | 38.5 ± 0.7 min |  | 0.11 ± 0.04 | 7.59 µM |  | protective effect | 22.4 µM | 
CC(C)C[C@H](NC(=O)C1CCN(C(=O)[C@@H](N)Cc2ccc(O)cc2)CC1)C(=O)N[C@@H](CC(=O)O)C(=O)N[C@@H](CC(C)C)C(=O)N[C@@H](Cc1ccccc1)C(N)=O [analog 7, Tyr-Inp-Leu-Asp-Leu-Phe-NH2] (H-Y[Inp]LDLF-NH2) | Inactive | Inactive | 30.7 ± 0.35 min |  | Inactive |  | Inactive |  |  | about 50%
YPLDLF [R-6, rubiscolin-6] |  |  | 14.3 ± 0.8 min | ≤ 40% | Inactive |  | Inactive |  | 5.62 µM | 
YPLDLF-NH2 [analog 6, Tyr-Pro-Leu-Asp-Leu-Phe-NH2] | Inactive | Inactive | 23.2 ± 1.05 min |  | Inactive |  | Inactive |  |  | 
